In patent publication USRE48898E1, “Prodrugs of 2,4-pyrimidinediamine compounds and their uses” (Rigel Pharmaceuticals, Inc., priority 2006, dated 2022):
Entries after “also recorded” stand apart in the source; their conditions may differ. Where a name gives a salt, the structure may show the parent alone. Read-outs that look alike come from different tables or passages of the source.

What was measured:
Water solubility = type: physicochemical
[1] = tested on: Cord-Blood Derived Primary Human Mast Cells (CHMC); test: FcϵRI-dependent activation of CHMC, activity of tryptase released upon degranulation; type: cell-based; conditions: Mast cell
CHMCs = test: Ionomycin-induced degranulation of CHMCs; type: cell-based, Human
[2] = tested on: FcϵRI-dependent production and release of LTC4; test: FcϵRI-dependent production and release of LTC4; type: cell-based
[3] = tested on: FcϵRI-dependent production and release of cytokines; test: FcϵRI-dependent production and release of cytokines; type: cell-based; conditions: read-out: EC50, all cytokines tested
[4] = tested on: Reverse Passive Arthus (RPA) reaction; test: Reverse Passive Arthus (RPA) reaction; type: in vivo, rat
Excerpt: IC-mediated acute inflammatory tissue injury is implicated in a variety of human autoimmune diseases, including vasculitis, serum sickness, systemic lupus erythematosus, RA, and glomerulonephritis. The classical experimental model for IC-mediated tissue injury is the Reverse Passive Arthus (RPA) reaction. Intravenous injection of antigen (ovalbumin, OVA) following intradermal injection of antibodies specific to OVA (rabbit anti-OVA IgG) results in perivascular deposition of IC and a rapid inflammatory response characterized by edema, neutrophil infiltration, and hemorrhage at the injection sites (Szalai, et al., 2000, J. Immunol. 164(1):463-468).

[5] = tested on: collagen antibody-induced arthritis (CAIA); test: Collagen antibody-induced arthritis (CAIA) model; type: in vivo, Balb/c mice
Excerpt: This passive model differs from the traditional rodent collagen-induced arthritis (CIA) in that disease symptoms appear quickly (developing within 24-48 hrs after an IV-injection of antibodies), arthritis is inducible in both CIA-susceptible and CIA-resistant mouse strains, and it allows evaluation of inflammation that is independent of antibody production. CAIA was induced in Balb/c mice by intravenous injection of Arthrogen-CIA® Monoclonal Antibody Blend (Chemicon International, Inc., Temecula, Calif.) via the tail vein, followed 2 days later by an intraperitoneal injection of LPS. […] The severity of the arthritis in hind-paws was scored daily (scale of 0-4 per paw, sum of scores for both hind paws).

[6] = tested on: collagen-induced arthritis; test: Collagen-induced arthritis (CIA); type: in vivo, Syngeneic LOU rats
Excerpt: One of the experimental models for IC-mediated tissue injury is the CIA in rodents (Kleinau et al., 2000, J. Exp. Med. 191:1611-1616). Injection of type II collagen (CII) into rodents produces an immune reaction that characteristically involves inflammatory destruction of cartilage and bone of the distal joints with concomitant swelling of surrounding tissues. CIA in rats is commonly used to evaluate compounds that might be of potential use as drugs for treatment of rheumatoid arthritis and other chronic inflammatory conditions and is induced in susceptible strains of either mice or rats by injection of CII in incomplete Freund's adjuvant (IFA). Administration of this emulsion gives rise to polyarthritis, characterized by synovial hyperplasia, infiltration of mononuclear cells, pannus formation, and destruction of cartilage and bone. […] Syngeneic LOU rats were immunized on Day 0 with native chicken CII/IFA. Oral treatment began at the onset of arthritis symptoms (Day 10). […] Hind limbs were scored daily for clinical arthritis severity using a standardized method based on the degree of joint inflammation. High resolution digital radiographs of hind limbs were obtained at the conclusion of the study (Day 28). These limbs were also analyzed for histopathologic changes. IgG antibodies to native CII were measured in quadruplicate by ELISA. […] Brahn. 2004). Blinded composite histopathologic studies confirmed the regression of pannus and erosions: […] Antibodies to native CII were not decreased in Compound 1-treated rats.

[7] = GLP mutagenicity and clastogenicity studies (Ames, chromosomal aberration, mouse micronucleus)
Method: (§1) GLP toxicology studies included negative mutagenicity and clastogenicity studies (Ames, chromosomal aberration, and mouse micronucleus). […] The No Observed Adverse Effect Level (NOAEL) is 10-30 mg/kg/day for rats and 100 mg/kg/day for monkeys.

[8] = in vivo
Method: as §1

[9] = Pharmacokinetics, IV and oral dosing; type: in vivo, Sprague-Dawley rats
Method: Prodrug Compound 4 was tested for oral bioavailability. For the study, the prodrug was dissolved in various vehicles (e.g. PEG 400 solution and CMC suspension) for intravenous and oral dosing in the rats. […] Following administration of the prodrug and/or drug, plasma samples were obtained and extracted. The plasma concentrations of the prodrug and/or drug were determined by high performance liquid chromatography/tandem mass spectrometry (LC/MS/MS) methods. Pharmacokinetic analyses were performed based on the plasma concentration data. The pharmacokinetic parameters of interest include Clearance (CL), Volume of distribution at steady-state (Vss), terminal half-life (t ½), and oral bioavailability (% F).
Referring to FIG. 4, PK profiles are shown for IV and PO administration in Sprague-Dawley rats. For IV administration, Compound 4 was dissolved in PEG-400 and administered at a dose of 1 mg/kg.
FIG. 5 summarizes the PK parameters for the study described in FIG. 4.
FIG. 11 illustrates the absorption of prodrug Compound 4 from different vehicles. […] Prodrug Compound 4 is absorbed equally well in solution formulations (PEG-400 and carboxymethylcellulose (CMC)) and as a powder in hard gelatin capsules.

[10] = Stability under acidic and neutral conditions; type: physicochemical; conditions: acidic and neutral conditions at 37° C.
[11] = Conversion of prodrug to drug in microsome preparations; type: in vitro ADME, rat
Excerpt: Although phosphate-containing prodrugs suitable for oral administration are of interest, skilled artisans will appreciate that prodrugs including phosphate-containing progroups R^p can be administered via other routes of administration, as phosphatases are distributed throughout the body. […] Thus, the only requirement is that the particular phosphate-containing progroup R^p selected should be removable under the conditions of intended use.

Stability in rat plasma = type: in vitro ADME
Excerpt: The presence of Phosphatase activity in rat plasma was confirmed using p-nitrophenyl phosphate—a known substrate for phosphatase.

[12] = Moisture sorption analysis; type: physicochemical
Method: The sample for moisture analysis was allowed to dry at 25° C. for up to 4 hours under a stream of dry nitrogen. The relative humidity was then increased stepwise from 10 to 90% relative humidity (adsorption scan) allowing the sample to equilibrate for a maximum of four hours before weighing and moving on to the next step. The desorption scan was measured from 85 to 0% relative humidity with the same equilibration time. The sample was then dried at 80° C. for 2 hours or until no weight loss was observed under a stream of dry nitrogen.

[13] = aqueous buffer, aqueous buffer under physiological conditions, read-out: water solubility
[14] = water, water solubility, read-out: Solubility
[15] = water, in water, read-out: solubility

In the case of `COc1cc(Nc2ncc(F)c(Nc3ccc4c(n3)NC(=O)C(C)(C)O4)n2)cc(OC)c1OC` [Compound 1, N4-(2,2-dimethyl-3-oxo-4H-5-pyrido[1,4]oxazin-6-yl)-5-fluoro-N2-(3,4,5-trimethoxyphenyl)-2,4-pyrimidinediamine], the solubility (Water solubility; [13]) is reported as less than 1 µg/mL, the solubility (Water solubility; phosphate buffer, pH 7.5, aqueous buffer, phosphate buffer at pH=7.5, read-out: measured solubility) is reported as less than 1 µg/mL and the solubility (Water solubility; [14]) is reported as less than 1 µg/mL. The EC50 [1] was roughly 0.043 µM, the “inhibition of ionomycin-induced degranulation” value (CHMCs) was “does not inhibit” and the EC50 [2] was 0.039 µM. For the same compound, the EC50 [3] was 0.158 to 0.462 µM, the inhibition at 10 mg/kg ([4]; Rattus norvegicus, 10 mg/kg oral, rats, compared with vehicle control, read-out: inhibition of extravascular leakage of Evans blue dye (OD610) from tissue biopsies) was 80% and the “cutaneous RPA reaction and inflammatory edema” value ([4]; single oral treatment of rats one hour prior to antigen/antibody) was “reduced the cutaneous RPA reaction and inflammatory edema in a dose-dependent manner”. The “arthritis severity, disease incidence, time of onset” value ([5]; lower dose levels, p>0.05) was “the differences were not significant”, the clinical arthritis ([5]; oral, b.i.d., vs vehicle, p<0.05) was “significantly reduced clinical arthritis” and the arthritis severity ([6]; 30 mg/kg q.d. p.o., evident within 7 days after initiation of therapy, p<0.05) was “significant reduction”. For the same compound, the “Mean modified Mankin scores” value ([6]; 30 mg/kg, vehicle 11.8±0.9, p<0.001) was 3.7±0.9, the clinical score ([6]; Day 28, 30 mg/kg, vehicle 6.08±0.67, p<0.001) was 2.54±0.98 and the “joint damage, blinded radiographs” value ([6]; Day 28, vehicle 3.66±0.71, p<0.02) was 1.63±0.67. For the same compound, the “Antibodies to native CII” value ([6]; ELISA, treated rats) was “not decreased”, the mutagenicity and clastogenicity [7] was “negative” and the 28-day toxicity findings ([8]; monkey) was “reversible effect on hematology”. The 28-day toxicity findings ([8]; rat) was “reversible effect on hematology, liver transaminase (mild effect in the rat only), spleen and thymus size (rat only) and bone marrow cellularity (rat and monkey)”, the “CD45RA+ cells, immunophenotyping” value ([8]; rat) was “significant increase” and the Histopathology ([8]; rat) was “mild reductions in marrow cellularity”. For the same compound, the “humoral immunity, anti-KLH antibody assessment” value ([8]; rat) was “no evidence for untoward effects” and the “percentage of CD3+ cells, immunophenotyping” value ([8]; rat) was “significant decrease”.
For `COc1cc(Nc2ncc(F)c(Nc3ccc4c(n3)N(COP(=O)(O)O)C(=O)C(C)(C)O4)n2)cc(OC)c1OC` [Compound 4, N4-(2,2-dimethyl-4-[(dihydrogenphosphonoxy)methyl]-3-oxo-5-pyrido[1,4]oxazin-6-yl)-5-fluoro-N2-(3,4,5-trimethoxyphenyl)-2,4-pyrimidinediamine], the “solubility of prodrug relative to active drug Compound 1” value (Water solubility; aqueous buffer under physiological conditions) was “approximately 2000 times”, the solubility (Water solubility; [13]) was greater than 5000 µg/mL and the solubility (Water solubility; [14]) was greater than 5000 µg/mL. The “plasma profile of prodrug after IV administration” value ([9]; IV 1 mg/kg in PEG-400) was “Rapid disappearance”, the “levels of drug metabolite Compound 1 after oral prodrug” value ([9]; oral, PEG-400) was “high levels” and the “systemic presence of prodrug after oral administration” value ([9]; oral, PEG-400) was “no prodrug Compound 4 was present systemically”. For the same compound, the “AUC/dose (Compound 1 exposure) / absorption, prodrug vs drug Compound 1” value ([9]; oral, Compound 4 4 mg/kg vs Compound 1 2.5 mg/kg in PEG-400) was “nearly identical”, the “dependence of absorption on formulation” value ([9]; rats, PEG-400 and CMC solutions, powder in hard gelatin capsules) was “not dependent upon formulation; also recorded: not dependent on formulation” and the clearance of prodrug ([9]; study of FIG. 4/5) was “rapidly cleared”. The stability [10] was “stable”, the “conversion to drug Compound 1” value ([11]; intestinal and hepatic microsomes from a different source) was “metabolize to the active drug Compound 1; also recorded: conversion of Compound 4 to Compound 1 was observed” and the “conversion to drug Compound 1” value ([11]; microsomal preparations obtained from Xenotech) was “failed to convert”. The “stability in rat plasma / hydrolysis to Compound 1” value (Stability in rat plasma) was “metabolize to the active drug Compound 1; also recorded: unstable”.
With `COc1cc(Nc2ncc(F)c(Nc3ccc4c(n3)N(COP(=O)(O)O)C(=O)C(C)(C)O4)n2)cc(OC)c1OC` [Prodrug Salt 6, N4-(2,2-dimethyl-4-[(dihydrogenphosphonoxy)methyl]-3-oxo-5-pyrido[1,4]oxazin-6-yl)-5-fluoro-N2-(3,4,5-trimethoxyphenyl)-2,4-pyrimidinediamine mono calcium salt] the solubility (Water solubility; [15]) was 15 µg/mL.
In the case of `COc1cc(Nc2ncc(F)c(Nc3ccc4c(n3)N(COP(=O)([O-])[O-])C(=O)C(C)(C)O4)n2)cc(OC)c1OC.[Na+].[Na+]` [prodrug salt hydrate 32, N4-(2,2-dimethyl-4-[(dihydrogenphosphonoxy)methyl]-3-oxo-5-pyrido[1,4]oxazin-6-yl)-5-fluoro-N2-(3,4,5-trimethoxyphenyl)-2,4-pyrimidinediamine disodium salt hexahydrate], the solubility (Water solubility; [15]) is reported as 10000 µg/mL, the water content ([12]; after humidity is increased) is reported as “approximately 14.0%” and the moisture content ([12]; dry conditions, ambient temperature, about 0% relative humidity) is reported as “approximately 4.0%”. For the same compound, the “stability of hydration over relative humidity” value ([12]; hexahydrate form) was “stable over a wide range of relative humidities”.
